For test [1], the system named is human liver cancer cells (HepG2). Kind of test: Cell proliferation test, human liver cancer cells. The class given is cell-based. The conditions noted are these: 2.5 μM and 25 μM, FIG. 10. As to the method: (§1) To see whether or not the astrocyte proliferation accelerating activity of the cyclic peptide derivative is a specific proliferative activity that is limited only to an astrocyte or it is based on a common cell proliferative activity, investigations were made by using normal human dermal fibroblasts (NHDF), human liver cancer cells (HepG2), and human leukemia cells (K562).
(§2) Seeding of each cell on a 96 well plate was carried out by adding 100 μl of a cell suspension in which normal human dermal fibroblasts are prepared at 2.5×10^4 cells/ml or human liver cancer cells and human leukemia cells are prepared at 5×10^4 cells/ml. Since the cyclic peptide derivative is added after dissolving it in PBS (−), only PBS (−) was added as a control.

For test [2], the system named is human leukemia cells (K562). The test is described as follows: Cell proliferation test, human leukemia cells. It is filed as cell-based. To be noted: 2.5 μM and 25 μM, FIG. 10. On the procedure:
as §1, §2

One compound from patent US10654890B2, “Cyclic peptide derivative, method for preparing same and composition thereof” (priority 2014, dated 2020) can be followed below.

Regarding `CCC1(C)Oc2cc(ccc2O)C(O)C(NC)C(=O)NC(C(C)C)C(=O)NC1C(=O)NC(CCC(=O)O)C(=O)O` (centres unmarked) [cyclic peptide derivative], the “inhibitory activity on cell proliferation” value in test [1] and in test [2] was “a strong inhibitory activity on cell proliferation was observed” each time.
